# Results taken from patent US20250090540A1, “PI3K-ALPHA INHIBITORS AND METHODS OF USE THEREOF” (Relay Therapeutics, Inc., priority 2021, published 2025).
# Target: H1047R PIK3CA enzyme (Homo sapiens, UniProt P42336, H1047R)
# Test: ADP-Glo Biochemical PIK3CA Kinase Assay
# Conditions: not given
# Sequence of H1047R PIK3CA enzyme (P42336 whole entry H1047R): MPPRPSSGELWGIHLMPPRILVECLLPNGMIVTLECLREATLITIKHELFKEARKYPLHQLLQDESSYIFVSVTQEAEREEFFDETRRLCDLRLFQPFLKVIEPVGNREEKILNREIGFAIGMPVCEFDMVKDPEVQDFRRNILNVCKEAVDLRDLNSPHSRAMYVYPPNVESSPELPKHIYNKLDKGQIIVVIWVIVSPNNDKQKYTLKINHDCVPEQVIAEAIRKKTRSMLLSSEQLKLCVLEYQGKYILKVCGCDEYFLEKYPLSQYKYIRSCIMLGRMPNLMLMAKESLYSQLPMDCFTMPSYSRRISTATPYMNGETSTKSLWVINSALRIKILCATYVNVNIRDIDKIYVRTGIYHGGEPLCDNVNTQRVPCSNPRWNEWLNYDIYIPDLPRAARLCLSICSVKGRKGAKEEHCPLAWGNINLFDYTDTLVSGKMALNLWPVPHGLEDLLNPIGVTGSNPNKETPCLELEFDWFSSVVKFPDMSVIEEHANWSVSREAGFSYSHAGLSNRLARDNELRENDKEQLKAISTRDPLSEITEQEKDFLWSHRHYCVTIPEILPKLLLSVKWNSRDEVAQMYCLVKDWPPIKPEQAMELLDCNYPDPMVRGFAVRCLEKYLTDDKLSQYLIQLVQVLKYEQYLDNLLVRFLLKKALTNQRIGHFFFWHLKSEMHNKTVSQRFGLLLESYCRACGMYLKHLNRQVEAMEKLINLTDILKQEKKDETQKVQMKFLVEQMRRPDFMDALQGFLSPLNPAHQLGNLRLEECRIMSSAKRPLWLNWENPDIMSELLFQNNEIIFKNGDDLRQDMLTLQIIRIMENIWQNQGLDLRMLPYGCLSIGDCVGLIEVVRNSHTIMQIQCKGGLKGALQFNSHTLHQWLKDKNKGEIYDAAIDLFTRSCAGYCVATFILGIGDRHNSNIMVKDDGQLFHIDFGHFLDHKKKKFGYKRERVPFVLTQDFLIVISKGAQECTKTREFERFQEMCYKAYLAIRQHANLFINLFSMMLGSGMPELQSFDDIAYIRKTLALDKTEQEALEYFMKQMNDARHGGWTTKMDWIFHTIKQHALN
# Sequence of H1047R PIK3CA enzyme (P27986 whole entry partner): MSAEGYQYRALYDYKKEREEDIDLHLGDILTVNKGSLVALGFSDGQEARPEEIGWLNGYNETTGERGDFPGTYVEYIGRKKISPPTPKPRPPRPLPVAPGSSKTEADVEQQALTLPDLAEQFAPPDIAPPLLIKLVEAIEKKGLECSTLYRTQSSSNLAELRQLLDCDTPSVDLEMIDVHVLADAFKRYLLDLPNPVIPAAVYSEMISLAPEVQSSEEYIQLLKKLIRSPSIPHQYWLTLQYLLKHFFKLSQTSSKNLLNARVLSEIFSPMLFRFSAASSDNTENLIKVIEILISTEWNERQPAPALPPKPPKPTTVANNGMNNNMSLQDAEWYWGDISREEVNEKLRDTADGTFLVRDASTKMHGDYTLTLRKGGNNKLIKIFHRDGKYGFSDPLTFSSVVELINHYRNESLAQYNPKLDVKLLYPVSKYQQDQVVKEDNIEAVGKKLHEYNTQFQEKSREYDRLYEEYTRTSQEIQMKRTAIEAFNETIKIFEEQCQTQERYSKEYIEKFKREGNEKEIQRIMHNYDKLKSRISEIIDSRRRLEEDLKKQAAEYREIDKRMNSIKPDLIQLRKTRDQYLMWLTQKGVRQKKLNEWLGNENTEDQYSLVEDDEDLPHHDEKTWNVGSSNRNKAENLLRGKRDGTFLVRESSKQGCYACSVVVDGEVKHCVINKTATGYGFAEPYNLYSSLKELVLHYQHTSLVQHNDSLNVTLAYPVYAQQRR
row,IC50 [µM],SMILES
1,1 to 10,Cc1ccc(NC(=O)c2cnc(Nc3ccccc3C)c(NC(=O)c3cc(F)cc(C(F)(F)F)c3)c2)nc1 [I-263]
2,10 to 100,CNC(=O)c1cnc(Nc2ccccc2C)c(NC(=O)c2cncc(C(F)(F)F)c2)c1 [I-388]
3,10 to 100,Cc1ccccc1Nc1ncc(-c2cnn(C)c2)cc1NC(=O)c1cc(F)cc(C(F)(F)F)c1 [I-9]
4,1 to 10,CNC(=O)c1cnc(Nc2ccccc2C)c(NC(=O)c2coc3ccccc23)c1 [I-44]
5,10 to 100,CNC(=O)c1cnc(-n2c(=O)ccc3ccccc32)c(NC(=O)c2cc(F)cc(C(F)(F)F)c2)c1 [I-822]
6,10 to 100,CNC(=O)c1cnc(Nc2ccccc2C)c(NC(=O)c2ccc(OC(F)(F)F)c(F)c2)c1 [I-391]
7,1 to 10,Cc1ccccc1Nc1ncc(-c2ccc(CNC(=O)OC(C)(C)C)cc2)cc1NC(=O)c1cc(F)cc(C(F)(F)F)c1 [I-76]
8,10 to 100,CNC(=O)c1cnc(Nc2cc(F)ccc2Cl)c(NC(=O)c2cc(F)cc(C(F)(F)F)c2)c1 [I-810]
9,1 to 10,Cc1ccccc1Nc1ncc(C(=O)Nc2cc[nH]n2)cc1NC(=O)c1cc(F)cc(C(F)(F)F)c1 [I-230]
10,10 to 100,CNC(=O)c1cnc(Nc2ccccc2C)c(NC(=O)c2ccc(F)c(F)c2OC)c1 [I-378]
11,10 to 100,CNC(=O)c1cnc(Nc2ccccc2C)c(NC(=O)c2nccnc2C(F)(F)F)c1 [I-372]
12,1 to 10,CNC(=O)c1cnc(Nc2ccccc2C)c(NC(=O)c2cn(C)c3ccccc23)c1 [I-207]
13,10 to 100,CNC(=O)c1cnc(Nc2ccccc2S(C)(=O)=O)c(NC(=O)c2cc(F)cc(C(F)(F)F)c2)c1 [I-47]
14,10 to 100,CNC(=O)c1cnc(N)c(NC(=O)c2cc(F)cc(C(F)(F)F)c2)c1 [I-204]
15,1 to 10,Cc1ccccc1Nc1ncc(-c2cnn(C)c2)cc1NC(=O)c1cc(F)cc(F)c1 [I-101]
16,10 to 100,CNC(=O)c1cnc(N2CCNCc3ccccc32)c(NC(=O)c2cc(F)cc(C(F)(F)F)c2)c1 [I-281]
17,1 to 10,Cc1ccccc1Nc1ncc(-c2cccnc2)cc1NC(=O)c1cc(F)cc(C(F)(F)F)c1 [I-77]
18,10 to 100,CNC(=O)c1cnc(Nc2ccccc2C)c(NC(=O)c2ccnc3ccccc23)c1 [I-157]
19,10 to 100,CNC(=O)c1cnc(Nc2ccccc2C)c(NC(=O)c2ccc3ncccc3c2)c1 [I-183]
20,1 to 10,Cc1ccccc1Nc1ncc(C(O)CO)cc1NC(=O)c1cc(F)cc(C(F)(F)F)c1 (stereo not drawn) [I-351]
21,10 to 100,CNC(=O)c1cnc(Nc2ccc(C)nc2)c(NC(=O)c2cc(F)cc(C(F)(F)F)c2)c1 [I-201]
22,1 to 10,Cc1ccccc1Nc1ncc(-c2cnn(C)c2)cc1NC(=O)c1ccc(F)c(C(F)(F)F)c1 [I-102]
23,0.5 to 1,COCCn1cc(-c2cnc(Nc3ccccc3C)c(NC(=O)c3cc(F)cc(C(F)(F)F)c3)c2)cn1 [I-148]

# Further lines, the compound ahead of its results:
row,SMILES,IC50 [µM]
1,Cn1cc(NC(=O)c2cc(F)cc(C(F)(F)F)c2)c(N2CCOc3ccccc32)cc1=O [I-273],1 to 10
2,Cc1ccccc1N[C@H]1CCN(C(=O)CC2CCOCC2)C[C@H]1C(=O)Nc1cc(F)cc(C(F)(F)F)c1 (racemic) [I-251],10 to 100
3,CNC(=O)c1cnc(Nc2ccccc2C)c(NC(=O)Cc2cccc(Cl)c2)c1 [I-35],10 to 100
4,O=C(Nc1cc(-c2ccc3ncnn3c2)cnc1N[C@H]1CCCC[C@H]1CO)c1cc(F)cc(C(F)(F)F)c1 (racemic) [I-817],10 to 100
5,CN1CC[C@H](NC(=O)c2cnc(N3CCOc4ccccc43)c(NC(=O)c3csc4ccccc34)c2)C1 (racemic) [I-349],0.5 to 1
6,CNC(=O)c1cnc(Nc2ccccc2C)c(NC(=O)c2csc3ncccc23)c1 [I-283],10 to 100
7,CNC(=O)c1cnc(Nc2ccccc2C)c(NC(=O)[C@@H](N)C2CCCCC2)c1 (stereo in doubt) [I-159],10 to 100
8,CNC(=O)c1cnc(Nc2ccccc2)c([N+](=O)[O-])c1 [I-24],10 to 100
9,CNC(=O)c1cnc(Nc2ccccc2C)c(Nc2cc(F)c3cn[nH]c3c2)c1 [I-327],10 to 100
10,"O=C(Nc1cc(-c2cnn(C(F)F)c2)cnc1Nc1cc(F)ccc1Cl)c1cc(F)cc(C(F)(F)F)c1 [I-803, N-(2-((2-chloro-5-fluorophenyl)amino)-5-(1-(difluoromethyl)-1H-pyrazol-4-yl)pyridin-3-yl)-3-fluoro-5-(trifluoromethyl)benzamide]",1 to 10
11,Cc1ccccc1Nc1ncc(-c2cnn(C)c2)cc1NC(=O)N1CCOc2ccccc21 [I-92],10 to 100
12,CNC(=O)c1cnc(NC2CCCC2)c(NC(=O)c2cc(F)cc(C(F)(F)F)c2)c1 [I-360],10 to 100
13,Cc1ccc(C(=O)Nc2cc(-c3cnn(C)c3)cnc2Nc2ccccc2C)cc1 [I-109],10 to 100
14,O=C(Nc1cc(-c2ccc3ncnn3c2)cnc1Nc1cc(F)ccc1Cl)c1cc(F)cc(C(F)(F)F)c1 [I-804],10 to 100
15,CNC(=O)c1cnc(Nc2ccccc2C)c(NC(=O)CC2CCc3ccccc32)c1 (stereo not drawn) [I-170],10 to 100
16,Cc1ccccc1Nc1ncc(C(=O)NC2CS(=O)(=O)C2)cc1NC(=O)c1cncc2ccccc12 [I-356],10 to 100
17,Cc1ccccc1Nc1ncc(-c2cnn(C)c2)cc1NC(=O)c1cccc2nn(C)cc12 [I-112],10 to 100
18,CNC(=O)c1cnc(N2CCNc3ccccc32)c(NC(=O)c2csc3ccccc23)c1 [I-244],10 to 100
19,Cc1ccc(Nc2ncc(C(=O)NCc3ccn(C)n3)cc2NC(=O)c2csc3ccccc23)cc1 [I-223],1 to 10
20,CNC(=O)c1cnc(Nc2ccccc2C)c(NC(=O)c2cccc(C#N)n2)c1 [I-379],10 to 100
21,CCC(C(=O)Nc1cc(C(=O)NC)cnc1Nc1ccccc1C)c1ccccc1 (stereo not drawn) [I-162],10 to 100
22,CCn1cccc(C(=O)Nc2cc(C(=O)NC)cnc2Nc2ccccc2C)c1=O [I-284],10 to 100
23,CNC(=O)c1cnc(Nc2ccccc2C)c(NC(=O)C2(c3cccnc3)CC2)c1 [I-334],10 to 100
24,O=C1CCCC(c2nc3c(F)cc(C(F)(F)F)cc3[nH]2)N1Cc1cc(F)ccc1Cl (stereo not drawn) [I-815],10 to 100
25,CNC(=O)c1cnc(Nc2ccccc2C)c(NS(=O)(=O)c2cn(C)nc2C)c1 [I-55],10 to 100
26,Cc1ccccc1Nc1ncc(-c2cnn(C)c2)cc1NC(=O)c1cccc2cn(C)nc12 [I-121],10 to 100
27,CNC(=O)c1cnc(Nc2ccccc2C)c(NC(=O)c2csc(C)n2)c1 [I-242],10 to 100
28,CC(=O)Nc1ccc(C(=O)Nc2cc(-c3cnn(C)c3)cnc2Nc2ccccc2C)cc1 [I-114],10 to 100
29,Cc1ccccc1Nc1ncc(-c2cnn(C)c2)cc1NC(=O)c1ccc2[nH]ncc2c1 [I-108],10 to 100
30,CNC(=O)c1cnc(Nc2ccccc2C)c(N(S(=O)(=O)c2ccccc2)S(=O)(=O)c2ccccc2)c1 [I-13],10 to 100

# Same assay, conditions: ADP-Glo biochemical PIK3CA kinase assay
row,IC50 [µM],SMILES
1,1 to 10,COc1nccc(NC(=O)c2cc(F)cc(C(F)(F)F)c2)c1Nc1ccccc1Cl [I-790]
2,1 to 10,CNC(=O)c1cnc(Nc2ccccc2C)c(NC(=O)c2ccc3cnccc3n2)c1 [I-645]
3,10 to 100,CNC(=O)c1cnc(Nc2ccccc2C)c(NC(=O)c2cc(Br)cc(C(C)C)c2)c1 [I-476]
4,10 to 100,CNC(=O)c1cnc(Nc2ccccc2C)c(NC(=O)c2cc3cccc(F)c3s2)c1 [I-442]
5,1 to 10,CNC(=O)c1cnc(Nc2ccccc2C)c(NC(=O)c2nc3cccc(C(F)(F)F)n3n2)c1 [I-642]
6,1 to 10,CNC(=O)c1cnc(Nc2ccccc2C)c(NC(=O)c2cc(C)c(F)c(C)c2)c1 [I-489]
7,1 to 10,CNC(=O)c1cnc(Nc2ccccc2C)c(NC(=O)c2noc3ccccc23)c1 [I-671]
8,10 to 100,CNC(=O)c1cnc(Nc2ccccc2C)c(NC(=O)c2cc3ccccc3n2C)c1 [I-505]
9,0.5 to 1,CNC(=O)c1cnc(Nc2ccccc2C)c(NC(=O)c2ccc(C#N)c(C(F)(F)F)c2)c1 [I-710]

# Further lines, the compound ahead of its results:
row,SMILES,IC50 [µM]
1,CNC(=O)c1cnc(Nc2ccccc2C)c(NC(=O)c2onc3c2CCCC3)c1 [I-463],10 to 100
2,CNC(=O)c1cnc(Nc2ccccc2C)c(NC(=O)Cc2c[nH]c3cc(F)c(F)cc23)c1 [I-467],10 to 100
3,CNC(=O)c1cnc(Nc2ccccc2C)c(N(CC(N)=O)C(=O)c2csc3ccccc23)c1 [I-776],1 to 10
4,CNC(=O)c1cnc(Nc2ccccc2C)c(NC(=O)c2cccc3c2OC(C)(C)C3)c1 [I-529],10 to 100
5,COc1cncc(CNC(=O)c2cc(NC(=O)c3csc4ccccc34)n(CC3CCC3)c(=O)c2)c1 [I-777],10 to 100
6,CNC(=O)c1cnc(Nc2ccccc2C)c(NC(=O)c2csc3c2CCC(C)(C)C3)c1 [I-403],10 to 100
7,Cc1ccccc1Nc1ncc(C(=O)NC2CCN(C)C2)cc1NC(=O)c1csc2ccccc12 (stereo not drawn) [I-574],1 to 10
8,CNC(=O)c1cnc(Nc2ccccc2C)c(NC(=O)C2CCCC3CCCCC32)c1 (stereo not drawn) [I-464],10 to 100
9,CC1COCCN1c1ncc(C(=O)N[C@H]2C[C@@H](C(N)=O)C2)cc1NC(=O)c1csc2ccccc12 (stereo partly drawn) [I-770],1 to 10
10,CNC(=O)c1cnc(Nc2ccccc2C)c(NC(=O)c2cccc3c2OC(C)(C)CC3)c1 [I-474],10 to 100
11,O=C(NC1CC(F)(F)C1)c1cnc(Nc2ccccc2Cl)c(NC(=O)c2csc3ccccc23)c1 [I-641],1 to 10
12,CNC(=O)c1cnc(Nc2ccccc2C)c(NC(=O)c2nn(C)c3c2CCC3)c1 [I-472],10 to 100
13,CNC(=O)c1cnc(Nc2ccccc2C)c(NC(=O)C2CCc3cccc(Cl)c32)c1 (stereo not drawn) [I-477],10 to 100
14,Cc1ccccc1Nc1ncc(C(=O)O)cc1NC(=O)c1csc2ccccc12 [I-629],1 to 10
15,CNC(=O)c1cnc(Nc2nccc3[nH]ccc23)c(NC(=O)c2csc3ccccc23)c1 [I-729],1 to 10
16,CCc1nccnc1Nc1ncc(C(=O)NC)cc1NC(=O)c1csc2ccccc12 [I-734],1 to 10
17,CNC(=O)c1cnc(Nc2ccccc2C)c(NC(=O)C2CCCCC2(F)F)c1 (stereo not drawn) [I-441],10 to 100
18,COc1ccc(SC2(C(=O)O)CC(=O)NC2c2ccccc2C)cc1 (stereo not drawn) [I-549],1 to 10
19,Cc1ccccc1Nc1ncc(C(=O)Nc2ncnn2C)cc1NC(=O)c1csc2ccccc12 [I-606],1 to 10
20,CNC(=O)c1cnc(Nc2ccccc2C)c(NC(=O)c2cccc(Cl)c2C)c1 [I-445],10 to 100
21,Cc1ccccc1Nc1ncc(C(=O)N[C@H]2CC[C@]3(CCC(=O)N3)CC2)cc1NC(=O)c1csc2ccccc12 [I-617],1 to 10
22,CNC(=O)c1cnc(Nc2cccc3[nH]ccc23)c(NC(=O)c2csc3ccccc23)c1 [I-768],0.5 to 1
